From patent publication US4276412A, “3-Trehalosamine compounds” (The Upjohn Company, priority 1979, dated 1981)
Values after ≈ are worked out from the molar mass of the structure shown.

How the values were obtained:
Bacillus subtilis UC 564 = assay: standard microbiological disc assay, zone size; format: cell-based; settings: 0.1 ml per 12.7 mm disc
Method: (§1) The testing was done on a standard microbiological disc assay system using 0.1 ml per 12.7 mm disc.

[1] = system: Bacillus subtilis UC 6033; assay: standard microbiological disc assay, zone size; format: cell-based; settings: 0.1 ml per 12.7 mm disc
Method: as §1

Escherichia coli UC 51 = assay: standard microbiological disc assay, zone size; format: cell-based; settings: 0.1 ml per 12.7 mm disc
Method: as §1

[2] = system: Klebsiella pneumoniae UC 57; assay: standard microbiological disc assay, zone size; format: cell-based; settings: 0.1 ml per 12.7 mm disc
Method: as §1

Proteus vulgaris UC 93 = assay: standard microbiological disc assay, zone size; format: cell-based; settings: 0.1 ml per 12.7 mm disc
Method: as §1

[3] = system: Pseudomonas aeruginosa UC 95; assay: standard microbiological disc assay, zone size; format: cell-based; settings: 0.1 ml per 12.7 mm disc
Method: as §1

Sarcina lutea UC 130 = assay: standard microbiological disc assay, zone size; format: cell-based; settings: 0.1 ml per 12.7 mm disc
Method: as §1

[4] = system: Staphylococcus aureus UC 3665; assay: standard microbiological disc assay, zone size; format: cell-based; settings: 0.1 ml per 12.7 mm disc
Method: as §1

[5] = system: Staphylococcus aureus UC 80; assay: standard microbiological disc assay, zone size; format: cell-based; settings: 0.1 ml per 12.7 mm disc
Method: as §1

S. aureus UC 76 = assay: Minimal Inhibitory Concentration; format: cell-based; settings: Staphylococcus aureus, UC76
S. faecalis UC 694 = assay: Minimal Inhibitory Concentration; format: cell-based; settings: Enterococcus faecalis, UC694
S. pyogenes UC 152 = assay: Minimal Inhibitory Concentration; format: cell-based; settings: Streptococcus pyogenes, UC152
D. pneumoniae UC 41 = assay: Minimal Inhibitory Concentration; format: cell-based; settings: Streptococcus pneumoniae, UC41
E. coli UC 45 = assay: Minimal Inhibitory Concentration; format: cell-based; settings: Escherichia coli, UC45
P. vulgaris UC 93 = assay: Minimal Inhibitory Concentration; format: cell-based; settings: Proteus vulgaris, UC93
K. pneumoniae UC 58 = assay: Minimal Inhibitory Concentration; format: cell-based; settings: Klebsiella pneumoniae, UC58
S. schottmuelleri UC 126 = assay: Minimal Inhibitory Concentration; format: cell-based
Ps. aeruginosa UC 95 = assay: Minimal Inhibitory Concentration; format: cell-based; settings: Pseudomonas aeruginosa, UC95
P. mirabilis UC 6671 = assay: Minimal Inhibitory Concentration; format: cell-based; settings: Proteus mirabilis, UC6671
S. marcescens UC 131 = assay: Minimal Inhibitory Concentration; format: cell-based; settings: Serratia marcescens, UC131
S. flexneri UC 143 = assay: Minimal Inhibitory Concentration; format: cell-based; settings: Shigella flexneri, UC143
S. typhi UC 215 = assay: Minimal Inhibitory Concentration; format: cell-based; settings: Salmonella enterica, read-out: Minimal Inhibitory Concentration
B. subtilis (UC 564) = assay: biounit assay against B. subtilis (paper disc, zone of growth inhibition); format: cell-based; settings: IR-45 (OH--) column fractions after lyophilization; 12.7 mm disc, 0.08 ml, 32° C., ca 18 hours
Method: The active fractions during the recovery and purification process are determined by assay against the microorganism Bacillus subtilis. The assay procedure is as follows:
5.0 mls culture are centrifuged (4000×g, 10'). Serial dilutions of the supernatant solution are performed in 0.1 M phosphate buffer, pH 7.7. […] The trays are incubated at 32° C. for ca 18 hours and the zone of growth inhibition recorded.
The designation BU, used herein, means biounit. A biounit is defined as the concentration of the antibiotic which gives a 20 mm zone of inhibition.

[6] = system: various Gram-positive and Gram-negative bacteria; assay: antibacterial activity (in words); format: cell-based; settings: disc assay
Method: as §1

Staphylococcus aureus = assay: antibacterial activity (in words); format: cell-based
B. subtilis = assay: antibacterial activity (in words); format: cell-based
Solubilities = format: physicochemical
stability at various pH = format: physicochemical; settings: any pH from about 1 to about 11

## N[C@@H]1[C@@H](O)[C@@H](O[C@H]2O[C@H](CO)[C@@H](O)[C@H](O)[C@H]2O)O[C@H](CO)[C@H]1O [3-Trehalosamine]
Bacillus subtilis UC 564
  Zone Size: 36.5 mm
[1]
  Zone Size: 24 mm
Escherichia coli UC 51
  Zone Size: 0 mm
[2]
  Zone Size: 0 mm
Proteus vulgaris UC 93
  Zone Size: 0 mm
[3]
  Zone Size: 0 mm
Sarcina lutea UC 130
  Zone Size: 0 mm
[4]
  Zone Size: 30 mm
[5]
  Zone Size: 32 mm
S. aureus UC 76
  MIC: > 1000 µg/mL
S. faecalis UC 694
  MIC: > 1000 µg/mL
S. pyogenes UC 152
  MIC: 1000 µg/mL (≈ 2930 µM)
D. pneumoniae UC 41
  MIC: 62.5 µg/mL (≈ 183 µM)
E. coli UC 45
  MIC: > 1000 µg/mL
P. vulgaris UC 93
  MIC: > 1000 µg/mL
K. pneumoniae UC 58
  MIC: > 1000 µg/mL
S. schottmuelleri UC 126
  MIC: > 1000 µg/mL
Ps. aeruginosa UC 95
  MIC: > 1000 µg/mL
P. mirabilis UC 6671
  MIC: > 1000 µg/mL
S. marcescens UC 131
  MIC: > 1000 µg/mL
S. flexneri UC 143
  MIC: > 1000 µg/mL
S. typhi UC 215
  MIC: > 1000 µg/mL
B. subtilis (UC 564)
  potency vs Bs (biounits; BU = concentration giving a 20 mm zone of inhibition): 80 BU/mg
[6]
  antibacterial activity: active against various Gram-positive and Gram-negative bacteria
Staphylococcus aureus
  antibacterial activity: active against Staphylococcus aureus
B. subtilis
  antibacterial activity: active against B. subtilis
Solubilities; any pH from about 1 to about 11
  solubility: soluble
Solubilities; water, dilute acid, dilute base
  solubility: soluble in water, dilute acid and dilute base
Stability at various pH
  stability: stable
